Measurements: article PMC8424217 (The Journal of Biological Chemistry, 2021)
Peptide text beside a SMILES is read from it. * marks the point of attachment. Palmitoyl = CCCCCCCCCCCCCCCC(=O)*

How the values were obtained:
Type in all cases: cell-based
Parameters in all cases: expressed in transfected cells; host or cells: CHO-K1 cells stably expressing hUT (gift from H. Vaudry and C. Dubessy, University of Rouen)
hUT [1] = biological target: T1, hUT (Homo sapiens, UniProt Q9UKP6); test: ERK1/2 phosphorylation, western blot, CHO-hUT cells; settings: for EC50 / effect of AG1478 (EGFR inhibitor) on ERK1/2 phosphorylation induced by the peptide / effect of PTX on ERK1/2 phosphorylation induced by the peptide / effect of U73122 (PLC inhibitor) on ERK1/2 phosphorylation induced by the peptide / time of second peak of ERK1/2 phosphorylation / time of maximal ERK1/2 phosphorylation: CHO-hUT; for EC50: 5 min stimulation, mean ± SEM of at least three independent experiments in triplicate, read-out: ERK1/2 phosphorylation pEC50 (converted); for effect of AG1478 (EGFR inhibitor) on ERK1/2 phosphorylation induced by the peptide: AG1478 5 μM 30 min pretreatment; for effect of AG1478 (EGFR inhibitor) on ERK1/2 phosphorylation induced by the peptide / effect of PTX on ERK1/2 phosphorylation induced by the peptide / effect of U73122 (PLC inhibitor) on ERK1/2 phosphorylation induced by the peptide: pepducin 10^−6 M, 5 min, n = 3; for effect of PTX on ERK1/2 phosphorylation induced by the peptide: PTX 200 ng/ml 24 h pretreatment; for effect of U73122 (PLC inhibitor) on ERK1/2 phosphorylation induced by the peptide: U73122 1 μM 60 min pretreatment; for time of second peak of ERK1/2 phosphorylation / time of maximal ERK1/2 phosphorylation: pepducins 10^−6 M; for time of maximal ERK1/2 phosphorylation: hUII 10^−7 M
T1 sequence (Q9UKP6 1-389): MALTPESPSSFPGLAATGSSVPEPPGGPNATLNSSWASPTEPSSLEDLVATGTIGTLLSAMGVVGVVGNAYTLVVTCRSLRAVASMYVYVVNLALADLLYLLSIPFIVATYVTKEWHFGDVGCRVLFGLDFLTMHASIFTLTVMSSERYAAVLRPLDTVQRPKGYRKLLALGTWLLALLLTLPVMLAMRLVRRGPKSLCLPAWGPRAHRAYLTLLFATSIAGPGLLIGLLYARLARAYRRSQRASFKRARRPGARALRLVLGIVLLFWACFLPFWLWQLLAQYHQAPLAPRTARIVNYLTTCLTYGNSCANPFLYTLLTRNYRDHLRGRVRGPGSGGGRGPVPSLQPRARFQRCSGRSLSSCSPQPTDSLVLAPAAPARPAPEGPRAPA
Protocol: (§1) Figure 3 IP1production (A and B) and ERK1/2phosphorylation (C and D) kinetics and concentration dependence following hUT activation. IP1 production was evaluated using the IP-One terbium immunoassay kits while ERK1/2 phosphorylation was measured by western blot in CHO-K1 cells stably expressing hUT. […] Each curve represents the mean ± SEM of at least three independent experiments performed in triplicate.
ERK1/2 phosphorylation was measured by western blot. […] Quantification of ERK1/2 phosphorylation level was performed in three independent experiments done in triplicate (mean ± SEM, n = 3, ∗∗∗p < 0.001, ∗∗p < 0.01, or ∗p < 0.05, versus control).
(§2) CHO cells stably expressing hUT (CHO-hUT; gift from Drs H. Vaudry et C. Dubessy, University of Rouen, France) were grown in 12-well plates to 70–80% confluence and starved for 6 h in a serum-free medium. […] Briefly, HEK 293-hUT cells, grown in 12-well plates to 70–80% confluence, were starved for 6 h in a serum-free medium. […] Cells were then rinsed twice with ice-cold PBS and homogenized in 0.5 ml of lysis buffer (20 mM Tris, 150 mM NaCl, 1 mM EDTA, 1 mM EGTA, 1% Triton X-100, 2.5 mM sodium pyrophosphate, 1 mM β-glycerolphosphate, 1 mM Na3VO4, 1 μg mL^−1 leupeptin, 1 mM PMSF, 1 mM DTT) at 4 °C. Insoluble material was removed by centrifugation at 12,000 rpm for 30 min. The extract was treated with Laemmli sample buffer and heated for 5 min at 95 °C. Aliquots were assayed for protein concentration (BioRad) and an equal amount of total protein was subjected to 12% SDS–PAGE, followed by transfer to a nitrocellulose membrane. The membrane was blocked and then probed with primary antibody (phospho-p44/42 MAPK) at the optimal dilution (1/2000) with gentle agitation overnight at 4 °C. After washing with TTBS, membranes were then incubated with secondary antibody, conjugated with horseradish peroxidase (anti-rabbit HRP) diluted in TBST containing 5% skim milk (w/v) for 1 h at room temperature. Immunoreactive species were visualized by enhanced chemiluminescence using X-ray film and Thermo Scientific SuperSignal chemiluminescent substrates according to the manufacturer's instructions. Films were digitized and the intensity of the immunoreactive bands determined using Quantity One software from Bio-Rad.

hUT [2] = biological target: T1, hUT; test: IP1 production, IP-One terbium immunoassay, CHO-hUT cells; settings: for IP1 production efficacy at 10^−5 M: 40 min, normalized to the hUII maximum effect; for EC50: 40 min incubation at 37 °C, mean ± SEM of at least three independent experiments in triplicate, read-out: IP1 production pEC50 (converted)
Protocol: as §1
This assay, performed with the IP-One terbium immunoassay kits from Cisbio, was used according to the manufacturer recommendation and as previously described ([43]). Briefly, CHO-hUT cells were grown in 10-cm dishes for 24 h. The cells were then starved without serum. The next day, cells were washed once with PBS and collected in PBS containing 20 mM EDTA. For the assay, 80,000 cells per well (96-well plate) were used. […] IP1-d2 and anti-IP1-cryptate were added for an additional 2 h at room temperature. Plates were read on a Flexstation 3 microplate reader.

hUT [3] = biological target: T1, hUT; test: ERK1/2 phosphorylation, western blot, HEK 293-hUT cells; settings: for effect of YM254890 (Gq inhibitor) on ERK1/2 phosphorylation induced by the peptide: YM254890 100 nM 1 h pretreatment, hUT-Pep2 at 5 min, [Trp^1, Leu^2]hUT-Pep3 at 5 and 10 min, p < 0.05; for effect of YM254890 (Gq inhibitor) on ERK1/2 phosphorylation induced by the peptide / time of maximal ERK1/2 phosphorylation (for [Trp^1, Leu^2]hUT-Pep3: time to reach efficacy similar to hUII): pepducins 10^−5 M; for time of maximal ERK1/2 phosphorylation (for [Trp^1, Leu^2]hUT-Pep3: time to reach efficacy similar to hUII): hUII 10^−7 M
Protocol: Curves represent mean ± SEM of three independent kinetic experiments performed in triplicate.
as §2

CCCCCCCCCCCCCCCC(=O)N[C@@H](Cc1c[nH]c2ccccc12)C(=O)N[C@@H](CC(C)C)C(=O)N[C@@H](CO)C(=O)N[C@@H](CCC(N)=O)C(=O)N[C@@H](CCCNC(=N)N)C(=O)N[C@@H](C)C(=O)N[C@@H](CO)C(=O)N[C@@H](Cc1ccccc1)C(=O)N[C@@H](CCCCN)C(=O)N[C@@H](CCCNC(=N)N)C(=O)N[C@@H](C)C(=O)N[C@@H](CCCNC(=N)N)C(=O)N[C@@H](CCCNC(=N)N)C(N)=O [[Trp^1, Leu^2]hUT-Pep3] (Palmitoyl-WLSQRASFKRARR-NH2)
Emax (hUT [1]): 56 ± 2%
EC50 (hUT [1]): 200 nM
effect of AG1478 (EGFR inhibitor) on ERK1/2 phosphorylation induced by the peptide (hUT [1]): significantly reduced the ability of both hUT-derived pepducins to induce ERK1/2 phosphorylation
effect of PTX on ERK1/2 phosphorylation induced by the peptide (hUT [1]): completely prevented
effect of U73122 (PLC inhibitor) on ERK1/2 phosphorylation induced by the peptide (hUT [1]): completely prevented
time of second peak of ERK1/2 phosphorylation (hUT [1]): 60 min
time of maximal ERK1/2 phosphorylation (hUT [1]): 5 min
IP1 production efficacy at 10^−5 M (hUT [2]; CHO-hUT): ~60%
EC50 (hUT [2]; CHO-hUT): > 1000 nM
effect of YM254890 (Gq inhibitor) on ERK1/2 phosphorylation induced by the peptide (hUT [3]): modest, but significant, inhibitory effect
duration of ERK1/2 activation in presence of YM254890 (hUT [3]; YM254890 100 nM, 0-20 min): this activation is maintained and did not decrease over the studied period of time
time of maximal ERK1/2 phosphorylation (for [Trp^1, Leu^2]hUT-Pep3: time to reach efficacy similar to hUII) (hUT [3]): 10 min

CC(C)[C@H](NC(=O)[C@@H]1CSSC[C@H](NC(=O)[C@H](CC(=O)O)NC(=O)[C@@H]2CCCN2C(=O)[C@@H](NC(=O)[C@@H](N)CCC(=O)O)[C@@H](C)O)C(=O)N[C@@H](Cc2ccccc2)C(=O)N[C@@H](Cc2c[nH]c3ccccc23)C(=O)N[C@@H](CCCCN)C(=O)N[C@@H](Cc2ccc(O)cc2)C(=O)N1)C(=O)O [hUII, urotensin II, reference compound]
Emax (hUT [1]): 102 ± 2%
effect of PTX on ERK1/2 phosphorylation induced by the peptide (hUT [1]): substantially reduced, or even suppressed
time of maximal ERK1/2 phosphorylation (hUT [1]): 5 min
Emax (hUT [2]): 97 ± 1%
time to plateau of IP1 production (hUT [2]; CHO-hUT, time course): 40 min
time of maximal ERK1/2 phosphorylation (for [Trp^1, Leu^2]hUT-Pep3: time to reach efficacy similar to hUII) (hUT [3]): 5 min

CCCCCCCCCCCCCCCC(=O)N[C@@H](CCCNC(=N)N)C(=O)N1CCC[C@H]1C(=O)N[C@@H](CC(C)C)C(=O)N[C@@H](CC(=O)O)C(=O)N[C@H](C(=O)N[C@H](C(=O)N[C@@H](CCC(N)=O)C(=O)N[C@@H](CCCNC(=N)N)C(=O)N1CCC[C@H]1C(=O)N[C@@H](CCCCN)C(=O)NCC(=O)N[C@@H](Cc1ccc(O)cc1)C(N)=O)C(C)C)[C@@H](C)O [hUT-Pep2] (Palmitoyl-RPLDTVQRPKGY-NH2)
Emax (hUT [1]): 34 ± 2%
EC50 (hUT [1]): 55 nM
effect of AG1478 (EGFR inhibitor) on ERK1/2 phosphorylation induced by the peptide (hUT [1]): significantly reduced the ability of both hUT-derived pepducins to induce ERK1/2 phosphorylation
effect of PTX on ERK1/2 phosphorylation induced by the peptide (hUT [1]): unaffected by PTX treatment
effect of U73122 (PLC inhibitor) on ERK1/2 phosphorylation induced by the peptide (hUT [1]): only partially affected by the PLC inhibitor
time of second peak of ERK1/2 phosphorylation (hUT [1]): a similar pattern was not observed for hUT-Pep2
time of maximal ERK1/2 phosphorylation (hUT [1]): 5 min
IP1 production efficacy at 10^−5 M (hUT [2]; CHO-hUT): around 35%
EC50 (hUT [2]; CHO-hUT): > 1000 nM
effect of YM254890 (Gq inhibitor) on ERK1/2 phosphorylation induced by the peptide (hUT [3]): modest, but significant, inhibitory effect
time of maximal ERK1/2 phosphorylation (for [Trp^1, Leu^2]hUT-Pep3: time to reach efficacy similar to hUII) (hUT [3]): 5 min
